Test results as given in US6686366B1, “Compounds specific to adenosine A3 receptor and uses thereof” (OSI Pharmaceuticals, Inc., priority 1998, dated 2004).
Like-named read-outs stand apart in the source and are kept apart here.

How the values were obtained:
[1] = biological target: T1, human A1 receptor subtype (Homo sapiens, UniProt P30542); assay: biochemical
T1 sequence (P30542 1-326): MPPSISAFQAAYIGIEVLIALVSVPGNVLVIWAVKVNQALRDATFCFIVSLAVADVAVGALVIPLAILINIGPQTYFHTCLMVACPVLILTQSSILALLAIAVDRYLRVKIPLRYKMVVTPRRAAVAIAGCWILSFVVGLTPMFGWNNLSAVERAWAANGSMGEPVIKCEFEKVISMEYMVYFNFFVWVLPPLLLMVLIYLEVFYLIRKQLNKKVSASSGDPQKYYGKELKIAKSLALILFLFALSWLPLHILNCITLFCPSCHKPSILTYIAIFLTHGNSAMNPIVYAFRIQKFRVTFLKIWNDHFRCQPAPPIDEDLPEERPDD

[2] = biological target: T2, human adenosine A1 receptor (Homo sapiens, UniProt P30542); assay: Yeast β-Galactosidase reporter gene assay, inhibition of NECA-induced activity, strain CY12660
T2 sequence (P30542 1-326): T1 sequence (P30542 1-326)

[3] = biological target: T3, human A2b receptor subtype (Homo sapiens, UniProt P29275); assay: Adenosine 2b receptor subtype competition radioligand binding, [3H]DPCPX, HEK293 membranes; settings: Table 13
T3 construct: expressed in transfected cells; host or cells: HEK293, membranes
T3 sequence (P29275 1-332): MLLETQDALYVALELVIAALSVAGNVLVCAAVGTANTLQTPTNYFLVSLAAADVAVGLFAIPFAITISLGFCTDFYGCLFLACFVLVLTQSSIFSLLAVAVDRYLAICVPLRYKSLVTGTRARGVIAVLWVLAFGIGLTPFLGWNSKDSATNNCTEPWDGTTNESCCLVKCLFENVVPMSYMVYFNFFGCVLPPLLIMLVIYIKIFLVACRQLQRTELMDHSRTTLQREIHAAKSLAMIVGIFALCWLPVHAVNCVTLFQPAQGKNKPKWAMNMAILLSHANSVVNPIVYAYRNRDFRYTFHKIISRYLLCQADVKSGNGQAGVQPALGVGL

[4] = biological target: T4, human A3 receptor subtype (Homo sapiens, UniProt P0DMS8); assay: Adenosine 3 receptor competition radioligand binding, [125I]AB-MECA, HEK293 membranes
T4 sequence (P0DMS8 1-318): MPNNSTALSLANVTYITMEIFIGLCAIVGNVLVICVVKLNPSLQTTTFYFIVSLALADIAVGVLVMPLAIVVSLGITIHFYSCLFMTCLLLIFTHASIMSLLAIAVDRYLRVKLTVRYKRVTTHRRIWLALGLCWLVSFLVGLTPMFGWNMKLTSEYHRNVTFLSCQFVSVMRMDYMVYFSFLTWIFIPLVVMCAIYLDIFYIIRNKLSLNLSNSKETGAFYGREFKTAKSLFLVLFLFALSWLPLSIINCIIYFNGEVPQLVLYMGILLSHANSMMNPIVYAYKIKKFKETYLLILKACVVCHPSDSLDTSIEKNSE

[5] = biological target: T5, human A1 adenosine receptor (Homo sapiens, UniProt P30542); assay: Displacement binding of [3H]CPX, yeast membranes expressing hA1R
T5 sequence (P30542 1-326): T1 sequence (P30542 1-326)

human A3 receptor = biological target: T6, human A3 receptor (Homo sapiens, UniProt P0DMS8); assay: Displacement binding of [3H]CPX, yeast membranes expressing hA3R
T6 sequence (P0DMS8 1-318): T4 sequence (P0DMS8 1-318)

[6] = biological target: T7, human A2a receptor subtype (Homo sapiens, UniProt P29274); assay: Adenosine 2a receptor subtype competition radioligand binding, [3H]CGS-21680, HEK293 membranes; settings: Table 13; concentration not given
T7 construct: expressed in transfected cells; host or cells: HEK-293 (Cadus clone #5), membranes

[7] = biological target: T1, human A1 receptor subtype; settings: Table 13; concentration not given
A1 adenosine receptor = A1 adenosine receptor (Homo sapiens, UniProt P30542); settings: cited from earlier work
[8] = A1 Binding Ki (nM), Table 10, Effect of N6-Substituent
[9] = A1 Yeast IC50 (nM), Table 10, Effect of N6-Substituent
[10] = A1 Binding Ki (nM), Table 6, Effect of N6-Substituent
[11] = A1 Yeast IC50 (nM), Table 6, Effect of N6-Substituent

T7 sequence (P29274 whole entry): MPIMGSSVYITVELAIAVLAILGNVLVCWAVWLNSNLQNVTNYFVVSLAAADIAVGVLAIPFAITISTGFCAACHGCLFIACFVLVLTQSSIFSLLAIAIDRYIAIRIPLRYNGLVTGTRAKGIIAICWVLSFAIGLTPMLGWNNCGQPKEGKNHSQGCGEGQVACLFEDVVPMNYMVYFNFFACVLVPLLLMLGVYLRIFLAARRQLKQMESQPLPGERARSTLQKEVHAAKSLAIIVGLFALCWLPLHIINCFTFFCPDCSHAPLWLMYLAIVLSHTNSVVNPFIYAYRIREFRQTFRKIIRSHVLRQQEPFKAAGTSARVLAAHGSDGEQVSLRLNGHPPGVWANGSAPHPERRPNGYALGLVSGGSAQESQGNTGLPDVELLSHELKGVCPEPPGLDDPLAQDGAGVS

Row | Ki [1, 8] [nM] | IC50 [2, 9] [nM] | SMILES | further results
1 | 270 | 3010 | CCC(=O)NCCCNc1nc(-c2ccccc2)nc2[nH]c(C)c(C)c12 [Compound 1013] | 
2 |  |  | CC(=O)NCCCCNc1nc(-c2ccccc2)nc2[nH]c(C)c(C)c12 [Compound 1311] | Ki [3]: 736 nM; Ki [4]: 5.3 nM
3 |  |  | Cc1[nH]c2nc(-c3ccccc3)nc(N[C@@H]3CCC[C@H]3O)c2c1C [Compound 614] | Ki [1, 10]: 32.1 nM
4 |  |  | O=c1nc2[nH]c3ccccc3nc-2c(=O)[nH]1 [Alloxazine] | IC50 [5]: 1070 nM; IC50 (human A3 receptor): 8.22 µM
5 |  |  | Cc1[nH]c2nc(C3CCCC3)nc(N[C@H]3CC[C@H](O)CC3)c2c1C [Compound 703] | Ki ([1]; A1 Binding Ki (nM), Table 7, Effect of C2-Substituent): 444 nM; IC50 ([2]; A1 Yeast IC50 (nM), Table 7, Effect of C2-Substituent): > 10000 nM
6 | 152 | 2920 | CC(=O)C(=O)NCCNc1nc(-c2ccccc2)nc2[nH]c(C)c(C)c12 [Compound 1006] | 
7 |  |  | Cc1[nH]c2nc(-c3ccccc3)nc(NC3CCC(NS(C)(=O)=O)CC3)c2c1C (stereo not shown) [Compound 604] | IC50 [2, 11]: > 10000 nM
8 | 692 |  | Cc1[nH]c2nc(-c3ccccc3)nc(NCCNS(C)(=O)=O)c2c1C [Compound 1007] | 
9 |  |  | Cc1[nH]c2nc(-c3ccccc3)nc(NCCNC(=O)C3(N)CC3)c2c1C [Compound 1313] | Binding A2a, value given in % [6]: 65%; Binding A1, value printed in % [7]: 30%
10 |  |  | CNC(=O)NCCCNc1nc(-c2ccccc2)nc2[nH]c(C)c(C)c12 [Compound 1310] | Binding A2a, value given in % [6]: 76%
11 | 32.8 | 546 | Cc1[nH]c2nc(-c3ccccc3)nc(NCCNC(=O)C3CC3)c2c1C [Compound 1004] | 
12 |  |  | CC(=O)NC1CCC(Nc2nc(-c3ccccc3)nc3[nH]c(C)c(C)c23)CC1 (stereo not shown) [Compound 605] | Ki [1, 10]: > 10000 nM; IC50 [2, 11]: > 10000 nM
13 |  |  | Cc1[nH]c2nc(-c3ccccc3)nc(NC3CCC(OC(=O)c4ccccc4)CC3)c2c1C (stereo not shown) [Compound 606] | IC50 [2]: > 10000 nM
14 |  |  | Cc1[nH]c2nc(-c3ccc(F)cc3)nc(NC3CCC(O)CC3)c2c1C (stereo not shown) [Compound 707] | Ki [1]: 62.8 nM
15 | 176 | 5050 | Cc1[nH]c2nc(-c3ccccc3)nc(NCCCCO)c2c1C [Compound 1016] | 
16 | 26.7 | 196 | CCC(=O)NCCNc1nc(-c2ccccc2)nc2[nH]c(C)c(C)c12 [Compound 1003] | 
17 |  |  | Cc1c(C)n(C)c2nc(-c3ccccc3)nc(N[C@H]3CC[C@H](O)CC3)c12 [Compound 800] | Ki [1]: 3310 nM; IC50 [2]: > 10000 nM
18 |  |  | Cc1c(C)n(C(C)c2ccccc2)c2nc(-c3ccccc3)nc(NCC(C)C)c12 (stereo not shown) [Compound 903] | Ki ([1]; A1 Binding Bi (nM), Table 9): 35.3 nM
19 |  |  | Cc1[nH]c2nc(-c3ccccc3)nc(NC3CCC(OC(=O)c4ccccc4)CC3)c2c1C (stereo not shown) [Compound 611] | IC50 ([2]; read-out: A1 Yeast IC50, Table 6, Effect of N6-Substituent): > 10000 nM
20 | 385 | 2000 | Cc1[nH]c2nc(-c3ccccc3)nc(NCCO)c2c1C [Compound 1014] | 
21 |  |  | CC(Cc1ccccc1)Nc1ncnc2c1ncn2[C@@H]1O[C@H](CO)[C@@H](O)[C@H]1O (single isomer, unassigned; (-)) [PIA, (−)-N6-(2-phenylisopropyl)-adenosine] | reported affinity (A1 adenosine receptor): approximately 50 nM
22 | 475 |  | Cc1[nH]c2nc(-c3ccccc3)nc(NCCNC(=O)CCN)c2c1C [Compound 1009] | 
23 |  |  | CC(=O)NCCNc1nc(-c2ccccc2)nc2[nH]c(COc3ccccc3)cc12 [Example 17, 4-(2-acetylaminoethyl)amino-6-phenoxymethyl-2-phenyl-7H-pyrrolo[2,3d]pyrimidine] | melting point: 196 to 197 °C
24 | 122 | 2070 | CC(=O)OCCNc1nc(-c2ccccc2)nc2[nH]c(C)c(C)c12 [Compound 1011] | 
25 | 147 | 3970 | Cc1[nH]c2nc(-c3ccccc3)nc(NCCNC(=O)C(C)C)c2c1C [Compound 1005] | 
26 | 675 | 9380 | CC(=O)NCCCNc1nc(-c2ccccc2)nc2[nH]c(C)c(C)c12 [Compound 1010] | 
27 |  |  | CC(=O)NC(C)CNc1nc(-c2ccccc2)nc2[nH]c(C)c(C)c12 (stereo not shown) [Compound 1104] | IC50 ([2]; A1 Yeast IC50 (nM), Table 11, Effect of N6-Substituent): 58.7 nM
28 | 54.4 | 1870 | Cc1[nH]c2nc(-c3ccccc3)nc(NCCNC=O)c2c1C [Compound 1001] | 
29 | 93.1 | 3220 | Cc1[nH]c2nc(-c3ccccc3)nc(NCCNC(=O)CCC(=O)O)c2c1C [Compound 1008] | 
